Experimental data published in the supplement of paper PMC11451515.

Tested on: SEM cells
Assay: cell viability relative to DMSO control; higher = less cytotoxic
Settings: 48 h
Procedure, shortened: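 Viability is a per-plate percentage relative to DMSO wells, with cell-free wells as background. CellTiter-Glo One luminescence was read after 48 h at 37°C on 1536-well plates (5 μl) of NOMO1 or SEM (500 cells/well) or P12-Ichikawa (1000 cells/well) leukemia cells. The cells had been adapted for at least four passages in each medium and pin-dosed with library compounds in DMSO from 47 μM to 0.79 nM in 11 threefold steps.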

[1] = HPLM + 10% dialyzed FBS, 0.000781 µM
[2] = HPLM + 10% dialyzed FBS, 0.00234 µM
[3] = HPLM + 10% dialyzed FBS, 0.00702 µM
[4] = HPLM + 10% dialyzed FBS, 0.0211 µM
[5] = HPLM + 10% dialyzed FBS, 0.0632 µM
[6] = HPLM + 10% dialyzed FBS, 0.19 µM
[7] = HPLM + 10% dialyzed FBS, 0.569 µM
[8] = HPLM + 10% dialyzed FBS, 1.71 µM
[9] = HPLM + 10% dialyzed FBS, 5.12 µM
[10] = HPLM + 10% dialyzed FBS, 15.4 µM
[11] = HPLM + 10% dialyzed FBS, 46.1 µM
[12] = RPMI 5 mM glucose + 10% FBS, 0.000781 µM
[13] = RPMI 5 mM glucose + 10% FBS, 0.00234 µM
[14] = RPMI 5 mM glucose + 10% FBS, 0.00702 µM
[15] = RPMI 5 mM glucose + 10% FBS, 0.0211 µM
[16] = RPMI 5 mM glucose + 10% FBS, 0.0632 µM
[17] = RPMI 5 mM glucose + 10% FBS, 0.19 µM
[18] = RPMI 5 mM glucose + 10% FBS, 0.569 µM
[19] = RPMI 5 mM glucose + 10% FBS, 1.71 µM
[20] = RPMI 5 mM glucose + 10% FBS, 5.12 µM
[21] = RPMI 5 mM glucose + 10% FBS, 15.4 µM
[22] = RPMI 5 mM glucose + 10% FBS, 46.1 µM
[23] = RPMI 5 mM glucose + 10% dialyzed FBS, 0.000781 µM
[24] = RPMI 5 mM glucose + 10% dialyzed FBS, 0.00234 µM
[25] = RPMI 5 mM glucose + 10% dialyzed FBS, 0.00702 µM
[26] = RPMI 5 mM glucose + 10% dialyzed FBS, 0.0211 µM
[27] = RPMI 5 mM glucose + 10% dialyzed FBS, 0.0632 µM
[28] = RPMI 5 mM glucose + 10% dialyzed FBS, 0.19 µM
[29] = RPMI 5 mM glucose + 10% dialyzed FBS, 0.569 µM
[30] = RPMI 5 mM glucose + 10% dialyzed FBS, 1.71 µM
[31] = RPMI 5 mM glucose + 10% dialyzed FBS, 5.12 µM
[32] = RPMI 5 mM glucose + 10% dialyzed FBS, 15.4 µM
[33] = RPMI 5 mM glucose + 10% dialyzed FBS, 46.1 µM

Structure (SMILES) | cell viability [1] | cell viability [2] | cell viability [3] | cell viability [4] | cell viability [5] | cell viability [6] | cell viability [7] | cell viability [8] | cell viability [9] | cell viability [10] | cell viability [11] | cell viability [12] | cell viability [13] | cell viability [14] | cell viability [15] | cell viability [16] | cell viability [17] | cell viability [18] | cell viability [19] | cell viability [20] | cell viability [21] | cell viability [22] | cell viability [23] | cell viability [24] | cell viability [25] | cell viability [26] | cell viability [27] | cell viability [28] | cell viability [29] | cell viability [30] | cell viability [31] | cell viability [32] | cell viability [33]
CCCC[N+]1(C)[C@@H]2CC(OC(=O)[C@H](CO)c3ccccc3)C[C@H]1[C@@H]1O[C@@H]12 (some centres not stated) | 112% | 113% | 120% | 125% | 118% | 126% | 110% | 127% | 109% | 131% | 123% |  |  |  |  |  |  |  |  |  |  |  |  |  |  |  |  |  |  |  |  |  | 
CNC(=O)c1ccccc1Sc1ccc2c(/C=C/c3ccccn3)n[nH]c2c1 | 119% | 109% | 119% | 116% | 120% | 118% | 114% | 115% | 73.4% | 33.5% | 30.5% |  |  |  |  |  |  |  |  |  |  |  |  |  |  |  |  |  |  |  |  |  | 
Cc1cc(-c2ccc(CC(=O)Nc3ccc(-c4cccnc4)cc3)cc2)ccn1 | 115% | 112% | 123% | 118% | 118% | 119% | 123% | 87.8% | 80.8% | 12.7% | 18.4% | 101% | 123% | 131% | 133% | 124% | 129% | 131% | 112% | 123% | 24.5% | 15.5% | 113% | 113% | 126% | 106% | 110% | 124% | 128% | 112% | 104% | 21.7% | 16%
CC1CCN(c2cc(N3CCN(C)CC3)ccc2NC(=O)c2cc(C#N)c[nH]2)CC1 | 122% | 119% | 120% | 129% | 129% | 121% | 124% | 118% | 112% | 102% | 93.6% | 119% | 124% | 136% | 137% | 123% | 123% | 133% | 129% | 92.9% | 102% | 83.5% |  |  |  |  |  |  |  |  |  |  | 
COc1ccc2c(c1)CC[C@@H](CN(C)CC(=O)O)[C@H]2c1ccccc1 |  |  |  |  |  |  |  |  |  |  |  | 120% | 122% | 126% | 109% | 124% | 104% | 110% | 79.8% | 31% | 20.9% | 16% | 94.9% | 100% | 101% | 110% | 109% | 115% | 115% | 91.3% | 41.5% | 24.8% | 19.9%
CC(=O)O/N=C1/C(=C2\C(=O)Nc3cc(Br)ccc32)Nc2ccccc21 | 128% | 110% | 119% | 118% | 111% | 113% | 86.1% | 37.8% | 32.8% | 13.2% | 2.6% | 112% | 116% | 109% | 108% | 119% | 102% | 87.6% | 29.5% | 22.4% | 8.09% | 0.612% | 113% | 122% | 122% | 129% | 100% | 95% | 84.6% | 30.1% | 37.5% | 11.8% | 1.61%
CC(C)C1=N[N](C\2=C1C(=O)N\C(=N2)CC3=CC=C(OCCO)C=C3)C4=C(Cl)C=CC=C4Cl | 95.1% | 125% | 108% | 109% | 95.9% | 16.8% | 8.67% | 6.16% | 5.35% | 4.68% | 3.44% | 52.1% | 98.6% | 85.3% | 75.8% | 76.5% | 13.8% | 6.73% | 4.7% | 4.18% | 4.05% | 2.06% | 90.4% | 102% | 100% | 109% | 107% | 34.2% | 8.73% | 6.73% | 5.07% | 4.3% | 3.59%
CCCCc1ccc(N[S+](=O)([O-])c2ccc(C)c(C(=O)N3CCN(c4cccc(C)c4C)CC3)c2)cc1 |  |  |  |  |  |  |  |  |  |  |  | 120% | 124% | 138% | 17.1% | 129% | 118% | 137% | 126% | 119% | 106% | 98.2% | 117% | 96.2% | 127% | 21.2% | 118% | 118% | 106% | 117% | 107% | 117% | 84.9%
CCCCc1oc2ccccc2c1C(=O)c1cc(I)c(OCCN(CC)CC)c(I)c1 |  |  |  |  |  |  |  |  |  |  |  | 108% | 116% | 132% | 136% | 115% | 113% | 136% | 116% | 119% | 107% | 97.6% |  |  |  |  |  |  |  |  |  |  | 
Cc1n[nH]c(C)c1Cc1sc2c(c1C(=O)N1C[C@H](O)CO1)c(=O)n(C)c(=O)n2CC(C)C | 81.6% | 102% | 90.5% | 105% | 80.3% | 79.3% | 67.7% | 68% | 62.2% | 58.4% | 43.4% | 110% | 111% | 116% | 122% | 98.2% | 106% | 89.1% | 85.2% | 87.9% | 85.9% | 63.5% | 97.8% | 105% | 108% | 103% | 96.2% | 88.8% | 103% | 93.1% | 87.4% | 85% | 74.8%
COC1=CC(=C2C(=O)N(COC/3=C/C(=O)N4\C=C/C=C(OCCN5CCCCC5)\C4=N3)[S+]([O-])(=O)C2=C1)C(C)C | 116% | 119% | 128% | 131% | 103% | 135% | 108% | 83.4% | 148% | 128% | 114% | 119% | 132% | 125% | 129% | 134% | 134% | 106% | 71% | 137% | 143% | 102% | 105% | 113% | 120% | 123% | 114% | 125% | 82.9% | 63.5% | 113% | 114% | 97.5%
Cc1n[nH]c2ccc(-c3cncc(OC[C@@H](N)Cc4c[nH]c5ccccc45)c3)cc12 | 98.9% | 104% | 89.8% | 97.8% | 83.7% | 40.6% | 32.9% | 19.2% | 2.11% | 0.908% | 1.79% | 94.9% | 111% | 88.6% | 102% | 95.7% | 67% | 59.7% | 25% | 2.35% | 0.602% | 1.49% | 103% | 99.4% | 84.2% | 92.3% | 89% | 56.1% | 47.7% | 26.6% | 2.83% | 0.892% | 1.9%
